# According to patent US8858967B2, “Dermatological cream-gels containing avermectin compounds” (Galderma S.A., priority 2004, dated 2014):
# Experiment: Maximum solubility of ivermectin in solvents
# Format: physicochemical
# Source text: By way of example of a solvent and/or a propenetrating agent for the ivermectin active agent, representative are propylene glycol, alcohols such as ethanol, isopropanol, butanol, benzyl alcohol, N-methyl-2-pyrrolidone or DMSO, polysorbate 80; phenoxyethanol, and mixtures thereof.
substance,measurement,setting,value
Ivermectin,Maximum % solubility of ivermectin in the solvent under consideration (weight/weight),solvent N-methyl-2-pyrrolidone,58.13 % (weight/weight)
same,Maximum % solubility of ivermectin in the solvent under consideration (weight/weight),solvent propylene glycol/oleic acid (4 parts/2 parts),27.31 % (weight/weight)
same,Maximum % solubility of ivermectin in the solvent under consideration (weight/weight),solvent propylene glycol/polysorbate 80/phenoxyethanol (4 parts/1 part/1 part),28.63 % (weight/weight)
